The format of series [1] is physicochemical. The protocol: Varying amounts of DHP were added and the vials put in a 55° C. oven. Active ingredient analysis was done periodically.
Series [2] is classed as physicochemical. The protocol: This solution was distributed into 6 vials (3 g each) and varying amounts of cyclohexene were added. The vials were then heated at 55° C. and analyzed periodically.
This is another data set of the same source.

How the values of series [3] were obtained:
A solution of 5-chloro-2methyl-3-isothiazolone ("5-Chloro") and 2-methyl-3-isothiazolone ("2-Methyl") (3.11 g) was prepared in 2-propanol (12.1 g). This solution was distributed in 6 vials. Water (2%) and varying amounts of norbornene were then added. These were then put in a 55° C. oven and analyzed periodically.

In the case of `C1=COCCC1` [DHP, 3,4-Dihydro-2H-pyran], the “stability imparted to isothiazolones (in words)” value in series [1] was “imparts no stability”.

With `C1=CCCCC1` [cyclohexene], in series [2], the “stabilizer function (in words)” value was “functions as a stabilizer”.

For the compound `C1=CC2CCC1C2` [norbornene], in series [3], the “stability realized (in words)” value was “Some stability is realized” and the “stabilization properties in presence of water (in words)” value is “overwhelms the stabilization properties”.
